# Measured values reported in patent publication US20100216785A1, “PHARMACEUTICAL COMPOSITIONS” (NEUROSCIENZE PHARMANESS S.C. A.R.L., priority 2009, published 2010).
# What was measured:
# [1] = target: T1, CB1 cannabinoidergic receptors (Mus musculus, UniProt P47746); assay: Radioreceptor binding, displacement of [3H]-CP-55,940, CB1 receptors (mouse brain membranes)
# T1 construct: the complete brain (excluding the cerebellum) and the spleen were quickly dissected and kept in ice; from tissue; host or cells: mouse brain (excluding the cerebellum) membranes
# Procedure: (§1) The affinity of the compounds towards the CB1 and CB2 cannabinoidergic receptors was evaluated in vitro by radioreceptor binding studies using the following method.
# (§2) The technique of the receptor binding allows to establish if, and with which affinity and specificity, a specific compound binds to a particular receptor. To evaluate the affinity of a specific compound to a particular receptor it is necessary to challenge in a particular tissue preparation wherein those specific receptors are present the compound to be tested with a radioactive labelled compound whose affinity for the same receptors is known. […] The amount of radioactivity present in the receptor-compound complex allows furthermore to stimate with great accuracy the amount of compound bound to the receptor. By said method it is therefore possible to stablish quickly the affinity of a new compound towards a specific receptor and thus to determine its pharmacological activity. […]
# (§3) The thus obtained membranes (50-80 μg of proteins) were incubated in the presence of 1 nM of [^3H]-CP55.940 for 1 hour at 30° C. in a final volume of 0.5 ml of TME buffer containing 5 mg/ml of bovine serum albumin (BSA). The non specific binding was measured in the presence of CP55.940 at a 1 μM concentration. […]
# (§4) The radioactivity present in the filters was determined by a scintillator spectrophotometer (Tricarb® 2100, Packard, Meridien, USA). […]
# [2] = target: T2, CB2 cannabinoidergic receptors (Mus musculus, UniProt P47936); assay: Radioreceptor binding, displacement of [3H]-CP-55,940, CB2 receptors (mouse spleen membranes); conditions: 1 nM [3H]-CP55,940, 1 hour at 30° C.
# T2 construct: the complete brain (excluding the cerebellum) and the spleen were quickly dissected and kept in ice; from tissue; host or cells: mouse spleen membranes
# Procedure: as §1, §2, §3, §4
# T2 sequence (P47936 whole entry): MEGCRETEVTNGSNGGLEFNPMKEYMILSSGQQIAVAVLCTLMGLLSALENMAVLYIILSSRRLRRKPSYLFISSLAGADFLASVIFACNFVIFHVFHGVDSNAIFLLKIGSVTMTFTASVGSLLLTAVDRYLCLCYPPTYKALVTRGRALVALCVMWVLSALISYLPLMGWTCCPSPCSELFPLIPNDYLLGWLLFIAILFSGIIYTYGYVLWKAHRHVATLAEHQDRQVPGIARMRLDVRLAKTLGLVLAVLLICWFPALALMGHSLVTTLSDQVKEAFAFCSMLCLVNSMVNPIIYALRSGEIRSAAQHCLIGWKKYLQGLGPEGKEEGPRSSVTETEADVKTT
# T1 sequence (P47746 whole entry): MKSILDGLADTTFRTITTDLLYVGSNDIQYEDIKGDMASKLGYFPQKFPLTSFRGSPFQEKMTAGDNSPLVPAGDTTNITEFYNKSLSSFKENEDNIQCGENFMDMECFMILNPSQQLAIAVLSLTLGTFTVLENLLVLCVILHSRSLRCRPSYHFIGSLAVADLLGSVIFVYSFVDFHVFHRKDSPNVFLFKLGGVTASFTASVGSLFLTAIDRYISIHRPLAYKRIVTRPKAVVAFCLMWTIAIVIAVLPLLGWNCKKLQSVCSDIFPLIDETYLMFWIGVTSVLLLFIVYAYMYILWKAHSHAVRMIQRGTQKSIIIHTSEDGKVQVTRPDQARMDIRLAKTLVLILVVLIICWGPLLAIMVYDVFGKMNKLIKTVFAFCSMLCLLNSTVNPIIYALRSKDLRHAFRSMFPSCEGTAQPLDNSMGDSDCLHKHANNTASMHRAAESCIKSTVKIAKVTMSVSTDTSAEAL
Compound,Ki [1],Ki [2],melting point
"Cc1ccc2c(c1)oc1c(C(N)=O)nn(-c3ccc(Cl)cc3Cl)c12 [1-(2,4-dichlorophenyl)-6-methyl-1H-benzofuro[3,2-c]pyrazole-3-carboxamide]",> 3 µM,> 3 µM,185 to 186 °C
"Cc1ccc2c(c1)oc1c(C(=O)NN3CCCC3)nn(-c3ccc(Cl)cc3Cl)c12 [Example 3.21, N-pirrolidinyl-1-(2,4-dichlorophenyl)-6-methyl-1H-benzofuro[3,2-c]pyrazole-3-carboxamide]",,,90 to 92 °C
"Cc1ccc2c(c1)oc1c(C(=O)NN3CCOCC3)nn(-c3ccc(Cl)cc3Cl)c12 [Example 3.22, N-morpholin-4yl-1-(2,4-dichlorophenyl)-6-methyl-1H-benzofuro[3,2-c]pyrazole-3-carboxamide]",,,178 to 180 °C
"Cc1ccc2c(c1)oc1c(C(=O)NC3CCCCC3)nn(-c3ccc(Cl)cc3Cl)c12 [Example 3.23, N-cyclohexyl-1-(2,4-dichlorophenyl)-6-methyl-1H-benzofuro[3,2-c]pyrazole-3-carboxamide]",,,140 to 142 °C
"Cc1ccc2c(c1)oc1c(C(=O)N[C@H]3C[C@@H](C)CC[C@@H]3C(C)C)nn(-c3ccc(Cl)cc3Cl)c12 [Example 3.24, N-2-isopropyl-5-methyl-cyclohexyl-1-(2,4-dichlorophenyl)-6-methyl-1H-benzofuro[3,2-c]pyrazole-3-carboxamide]",,,70 to 72 °C
"Cc1ccc2c(c1)oc1c(C(=O)N[C@@H]3C[C@H]4C[C@@H]([C@@H]3C)C4(C)C)nn(-c3ccc(Cl)cc3Cl)c12 [Example 3.25, N-2,6,6-trimethyl-bicyclo[3.1.1]hept-3yl-1-(2,4-dichlorophenyl)-6-methyl-1H-benzofuro[3,2-c]pyrazole-3-carboxamide]",,,85 to 87 °C
"Cc1ccc2c(c1)oc1c(C(=O)NC3C4(C)CCC(C4)C3(C)C)nn(-c3ccc(Cl)cc3Cl)c12 (stereo not drawn) [Example 3.26, N-1,3,3-trimethyl-bicyclo[2.2.1]hept-2yl-1-(2,4-dichlorophenyl)-6-methyl-1H-benzofuro[3,2-c]pyrazole-3-carboxamide]",,,84 to 86 °C
"Cc1ccc2c(c1)oc1c(C(=O)NC3CC4CCC3(C)C4(C)C)nn(-c3ccc(Cl)cc3Cl)c12 (stereo not drawn) [Example 3.27, N-1,7,7-trimethyl-bicyclo[2.2.1]hept-2yl-1-(2,4-dichlorophenyl)-6-methyl-1H-benzofuro[3,2-c]pyrazole-3-carboxamide]",,,78 to 80 °C
"Cc1ccc2c(c1)oc1c(C(=O)NC34CC5CC(CC(C5)C3)C4)nn(-c3ccc(Cl)cc3Cl)c12 [Example 3.28, N-adamantan-1yl-1-(2,4-dichlorophenyl)-6-methyl-1H-benzofuro[3,2-c]pyrazole-3-carboxamide]",,,210 to 212 °C
"Cc1ccc2c(c1)oc1c(C(=O)NC3C4CC5CC(C4)CC3C5)nn(-c3ccc(Cl)cc3Cl)c12 (stereo not drawn) [Example 3.29, N-adamantan-2yl-1-(2,4-dichlorophenyl)-6-methyl-1H-benzofuro[3,2-c]pyrazole-3-carboxamide]",,,209 to 211 °C
